# Results published in PubChem BioAssay (NCI).
#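 48-hour exposure; five concentrations; linearly interpolated endpoints. At the TGI there is no net growth.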
# Columns and labels:
# Experiment in all cases: inhibition of tumour cell growth, NCI panel, 48 h
# 786-0 renal = tested on: 786-0 renal
# A498 renal = tested on: A498 renal
# A549 NSCLC = tested on: A549 NSCLC
# ACHN renal = tested on: ACHN renal
# BT-549 breast = tested on: BT-549 breast
# CAKI-1 renal = tested on: CAKI-1 renal
# CCRF-CEM leukemia = tested on: CCRF-CEM leukemia
# COLO 205 colon = tested on: COLO 205 colon
# DU-145 prostate = tested on: DU-145 prostate
# EKVX NSCLC = tested on: EKVX NSCLC
# HCT-116 colon = tested on: HCT-116 colon
# HCT-15 colon = tested on: HCT-15 colon
# HL-60(TB) leukemia = tested on: HL-60(TB) leukemia
# HOP-92 NSCLC = tested on: HOP-92 NSCLC
# HS 578T breast = tested on: HS 578T breast
# HT29 colon = tested on: HT29 colon
# IGROV1 ovarian = tested on: IGROV1 ovarian
# K-562 leukemia = tested on: K-562 leukemia
# KM12 colon = tested on: KM12 colon
# LOX IMVI melanoma = tested on: LOX IMVI melanoma
# M14 melanoma = tested on: M14 melanoma
# MALME-3M melanoma = tested on: MALME-3M melanoma
# MCF7 breast = tested on: MCF7 breast
# MDA-MB-231 breast = tested on: MDA-MB-231 breast
# MDA-MB-435 = tested on: MDA-MB-435
# MDA-N = tested on: MDA-N
# MOLT-4 leukemia = tested on: MOLT-4 leukemia
# NCI-H226 lung = tested on: NCI-H226 lung
# NCI-H23 lung = tested on: NCI-H23 lung
# NCI-H522 lung = tested on: NCI-H522 lung
# NCI/ADR-RES ovarian = tested on: NCI/ADR-RES ovarian
# OVCAR-3 ovarian = tested on: OVCAR-3 ovarian
# OVCAR-4 ovarian = tested on: OVCAR-4 ovarian
# OVCAR-5 ovarian = tested on: OVCAR-5 ovarian
# OVCAR-8 ovarian = tested on: OVCAR-8 ovarian
# PC-3 prostate = tested on: PC-3 prostate
# RPMI-8226 leukemia = tested on: RPMI-8226 leukemia
# SF-268 CNS = tested on: SF-268 CNS
# SF-539 CNS = tested on: SF-539 CNS
# SK-MEL-2 melanoma = tested on: SK-MEL-2 melanoma
# SK-MEL-28 melanoma = tested on: SK-MEL-28 melanoma
# SK-MEL-5 melanoma = tested on: SK-MEL-5 melanoma
# SK-OV-3 ovarian = tested on: SK-OV-3 ovarian
# SNB-19 CNS = tested on: SNB-19 CNS
# SNB-75 CNS = tested on: SNB-75 CNS
# SR leukemia = tested on: SR leukemia
# SW-620 colon = tested on: SW-620 colon
# TK-10 renal = tested on: TK-10 renal
# U251 CNS = tested on: U251 CNS
# UACC-257 melanoma = tested on: UACC-257 melanoma
# UACC-62 melanoma = tested on: UACC-62 melanoma
# UO-31 renal = tested on: UO-31 renal
# HCC-2998 colon = tested on: HCC-2998 colon
# HOP-62 NSCLC = tested on: HOP-62 NSCLC
# NCI-H460 lung = tested on: NCI-H460 lung
# RXF 393 renal = tested on: RXF 393 renal
# SF-295 CNS = tested on: SF-295 CNS
# SN12C renal = tested on: SN12C renal
smiles,measurement,setting,value
CC(=O)/C=c1\[nH]/c(=C\C=C\c2ccccc2)c(=O)n1/C=C1\C(=O)Oc2ccccc2C1=O,TGI,786-0 renal,> 100 µM
same,TGI,A498 renal,> 100 µM
same,TGI,A549 NSCLC,> 100 µM
same,TGI,ACHN renal,> 100 µM
same,TGI,BT-549 breast,> 100 µM
same,TGI,CAKI-1 renal,> 100 µM
same,TGI,CCRF-CEM leukemia,> 100 µM
same,TGI,COLO 205 colon,> 100 µM
same,TGI,DU-145 prostate,> 100 µM
same,TGI,EKVX NSCLC,> 100 µM
same,TGI,HCT-116 colon,> 100 µM
same,TGI,HCT-15 colon,> 100 µM
same,TGI,HL-60(TB) leukemia,> 100 µM
same,TGI,HOP-92 NSCLC,> 100 µM
same,TGI,HS 578T breast,> 100 µM
same,TGI,HT29 colon,> 100 µM
same,TGI,IGROV1 ovarian,> 100 µM
same,TGI,K-562 leukemia,> 100 µM
same,TGI,KM12 colon,> 100 µM
same,TGI,LOX IMVI melanoma,> 100 µM
same,TGI,M14 melanoma,> 100 µM
same,TGI,MALME-3M melanoma,> 100 µM
same,TGI,MCF7 breast,> 100 µM
same,TGI,MDA-MB-231 breast,> 100 µM
same,TGI,MDA-MB-435,> 100 µM
same,TGI,MDA-N,> 100 µM
same,TGI,MOLT-4 leukemia,> 100 µM
same,TGI,NCI-H226 lung,> 100 µM
same,TGI,NCI-H23 lung,> 100 µM
same,TGI,NCI-H522 lung,> 100 µM
same,TGI,NCI/ADR-RES ovarian,> 100 µM
same,TGI,OVCAR-3 ovarian,> 100 µM
same,TGI,OVCAR-4 ovarian,> 100 µM
same,TGI,OVCAR-5 ovarian,> 100 µM
same,TGI,OVCAR-8 ovarian,> 100 µM
same,TGI,PC-3 prostate,> 100 µM
same,TGI,RPMI-8226 leukemia,> 100 µM
same,TGI,SF-268 CNS,> 100 µM
same,TGI,SF-539 CNS,> 100 µM
same,TGI,SK-MEL-2 melanoma,> 100 µM
same,TGI,SK-MEL-28 melanoma,> 100 µM
same,TGI,SK-MEL-5 melanoma,> 100 µM
same,TGI,SK-OV-3 ovarian,> 100 µM
same,TGI,SNB-19 CNS,> 100 µM
same,TGI,SNB-75 CNS,> 100 µM
same,TGI,SR leukemia,> 100 µM
same,TGI,SW-620 colon,> 100 µM
same,TGI,TK-10 renal,> 100 µM
same,TGI,U251 CNS,> 100 µM
same,TGI,UACC-257 melanoma,> 100 µM
same,TGI,UACC-62 melanoma,> 100 µM
same,TGI,UO-31 renal,> 100 µM
O=c1c2cc(I)ccc2nc(Sc2ccc([N+](=O)[O-])cc2[N+](=O)[O-])n1Cc1ccccc1,TGI,786-0 renal,2.25 µM
same,TGI,A498 renal,21.3 µM
same,TGI,A549 NSCLC,> 85 µM
same,TGI,ACHN renal,26.1 µM
same,TGI,BT-549 breast,9.46 µM
same,TGI,CAKI-1 renal,24.7 µM
same,TGI,COLO 205 colon,17.2 µM
same,TGI,DU-145 prostate,12.7 µM
same,TGI,EKVX NSCLC,17.4 µM
same,TGI,HCC-2998 colon,11.1 µM
same,TGI,HCT-116 colon,2.71 µM
same,TGI,HCT-15 colon,3.82 µM
same,TGI,HL-60(TB) leukemia,5.5 µM
same,TGI,HOP-62 NSCLC,12.3 µM
same,TGI,HOP-92 NSCLC,8.56 µM
same,TGI,HS 578T breast,> 36.1 µM
same,TGI,HT29 colon,13.6 µM
same,TGI,IGROV1 ovarian,6.42 µM
same,TGI,K-562 leukemia,> 100 µM
same,TGI,KM12 colon,> 31.2 µM
same,TGI,LOX IMVI melanoma,2.89 µM
same,TGI,M14 melanoma,5.31 µM
same,TGI,MALME-3M melanoma,17.1 µM
same,TGI,MCF7 breast,5.59 µM
same,TGI,MDA-MB-231 breast,16.9 µM
same,TGI,MDA-MB-435,5.35 µM
same,TGI,MDA-N,3.89 µM
same,TGI,MOLT-4 leukemia,> 100 µM
same,TGI,NCI-H226 lung,10.3 µM
same,TGI,NCI-H23 lung,14.2 µM
same,TGI,NCI-H460 lung,29 µM
same,TGI,NCI-H522 lung,2.57 µM
same,TGI,NCI/ADR-RES ovarian,5.44 µM
same,TGI,OVCAR-3 ovarian,4.87 µM
same,TGI,OVCAR-4 ovarian,15.6 µM
same,TGI,OVCAR-5 ovarian,22.7 µM
same,TGI,OVCAR-8 ovarian,4.58 µM
same,TGI,PC-3 prostate,13.8 µM
same,TGI,RPMI-8226 leukemia,> 20.1 µM
same,TGI,RXF 393 renal,12.4 µM
same,TGI,SF-268 CNS,3.77 µM
same,TGI,SF-295 CNS,35.3 µM
same,TGI,SF-539 CNS,4.09 µM
same,TGI,SK-MEL-2 melanoma,3.73 µM
same,TGI,SK-MEL-28 melanoma,35.2 µM
same,TGI,SK-MEL-5 melanoma,17.8 µM
same,TGI,SK-OV-3 ovarian,> 56.8 µM
same,TGI,SN12C renal,2950 nM
same,TGI,SNB-19 CNS,20.4 µM
same,TGI,SNB-75 CNS,16.7 µM
same,TGI,SR leukemia,> 100 µM
same,TGI,SW-620 colon,> 100 µM
same,TGI,TK-10 renal,20.7 µM
same,TGI,U251 CNS,13.2 µM
same,TGI,UACC-257 melanoma,15.4 µM
same,TGI,UACC-62 melanoma,7.24 µM
same,TGI,UO-31 renal,4.13 µM
CCCCCCN1CCc2c(C)c(C#N)c3nc4ccccc4n3c21,TGI,786-0 renal,> 100 µM
same,TGI,A498 renal,> 100 µM
same,TGI,A549 NSCLC,> 100 µM
same,TGI,ACHN renal,> 100 µM
same,TGI,BT-549 breast,> 100 µM
same,TGI,COLO 205 colon,> 100 µM
same,TGI,DU-145 prostate,> 100 µM
same,TGI,HCC-2998 colon,> 100 µM
same,TGI,HCT-116 colon,> 100 µM
same,TGI,HCT-15 colon,> 100 µM
same,TGI,HL-60(TB) leukemia,> 100 µM
same,TGI,HOP-62 NSCLC,> 100 µM
same,TGI,HOP-92 NSCLC,> 100 µM
same,TGI,HS 578T breast,75.6 µM
same,TGI,HT29 colon,> 100 µM
same,TGI,IGROV1 ovarian,> 100 µM
same,TGI,K-562 leukemia,> 100 µM
same,TGI,LOX IMVI melanoma,> 100 µM
same,TGI,M14 melanoma,> 100 µM
same,TGI,MALME-3M melanoma,> 100 µM
same,TGI,MCF7 breast,41.5 µM
same,TGI,MDA-MB-231 breast,> 100 µM
same,TGI,MDA-MB-435,93.8 µM
same,TGI,MDA-N,> 100 µM
same,TGI,NCI-H226 lung,> 100 µM
same,TGI,NCI-H23 lung,> 100 µM
same,TGI,NCI-H460 lung,> 100 µM
same,TGI,NCI-H522 lung,> 100 µM
same,TGI,NCI/ADR-RES ovarian,> 100 µM
same,TGI,OVCAR-3 ovarian,> 100 µM
same,TGI,OVCAR-4 ovarian,> 100 µM
same,TGI,OVCAR-5 ovarian,> 100 µM
same,TGI,OVCAR-8 ovarian,> 100 µM
same,TGI,PC-3 prostate,> 100 µM
same,TGI,RXF 393 renal,> 100 µM
same,TGI,SF-268 CNS,> 100 µM
same,TGI,SF-295 CNS,> 100 µM
same,TGI,SF-539 CNS,> 100 µM
same,TGI,SK-MEL-2 melanoma,> 100 µM
same,TGI,SK-MEL-28 melanoma,> 100 µM
same,TGI,SK-MEL-5 melanoma,> 100 µM
same,TGI,SK-OV-3 ovarian,> 100 µM
same,TGI,SN12C renal,> 100000 nM
same,TGI,SNB-19 CNS,> 100 µM
same,TGI,SNB-75 CNS,> 100 µM
same,TGI,SR leukemia,> 100 µM
same,TGI,SW-620 colon,> 100 µM
same,TGI,TK-10 renal,> 100 µM
same,TGI,U251 CNS,> 100 µM
same,TGI,UACC-257 melanoma,> 100 µM
same,TGI,UACC-62 melanoma,> 100 µM
same,TGI,UO-31 renal,> 100 µM
